Tested on: MV-4-11 cells
Assay: Gene expression microarray analysis (Affymetrix PrimeView) and GSEA
Format: cell-based, human
Design: RFU PODN (11730768_x_at) / Fold change /veh PODN (11730768_x_at) / RFU LINC00158 (11744669_a_at) / Fold change /veh LINC00158 (11744669_a_at) / RFU DUSP10 (11751237_a_at) / Fold change /veh DUSP10 (11751237_a_at) / RFU ID3 (11757404_x_at) / Fold change /veh ID3 (11757404_x_at) / RFU PLEKHG5 (11737974_s_at) / Fold change /veh PLEKHG5 (11737974_s_at) / RFU LRRC4B (11730491_at) / Fold change /veh LRRC4B (11730491_at) / RFU GIMAP4 (11747438_a_at) / Fold change /veh GIMAP4 (11747438_a_at) / RFU KRT8 (11758183_x_at) / Fold change /veh KRT8 (11758183_x_at) / RFU CNN1 (11734310_a_at) / Fold change /veh CNN1 (11734310_a_at) / RFU VPS37D (11726825_at) / Fold change /veh VPS37D (11726825_at) / RFU C10orf10 (11716522_x_at) / Fold change /veh C10orf10 (11716522_x_at) / RFU KIR2DL2 /// KIR2DL4 /// KIR2DL5A /// KIR2DL5B /// KIR2DS1 /// KIR2DS2 /// KIR2DS3 /// KIR2DS4 /// KIR3DL3 /// KIR3DL3 /// KIR3DS1 (11738374_at) / Fold change /veh KIR2DL2 /// KIR2DL4 /// KIR2DL5A /// KIR2DL5B /// KIR2DS1 /// KIR2DS2 /// KIR2DS3 /// KIR2DS4 /// KIR3DL3 /// KIR3DL3 /// KIR3DS1 (11738374_at) / RFU C1QL1 (11718748_at) / Fold change /veh C1QL1 (11718748_at) / RFU TMPRSS4 (11747572_a_at) / Fold change /veh TMPRSS4 (11747572_a_at) / RFU HAMP (11756126_x_at) / Fold change /veh HAMP (11756126_x_at) / RFU RNFT2 (11725882_a_at) / Fold change /veh RNFT2 (11725882_a_at) / RFU NR4A2 (11747474_a_at) / Fold change /veh NR4A2 (11747474_a_at) / RFU ABCC12 (11746883_a_at) / Fold change /veh ABCC12 (11746883_a_at) / RFU TMEM136 (11760407_x_at) / Fold change /veh TMEM136 (11760407_x_at) / RFU CLDN22 /// WWC2 (11732394_at) / Fold change /veh CLDN22 /// WWC2 (11732394_at) / RFU HLA-DPB1 (11760878_x_at) / Fold change /veh HLA-DPB1 (11760878_x_at) / RFU SPINT1 (11716480_a_at) / Fold change /veh SPINT1 (11716480_a_at) / RFU GAP43 (11754022_s_at) / Fold change /veh GAP43 (11754022_s_at) / RFU A4GNT (11735810_at) / Fold change /veh A4GNT (11735810_at) / RFU PRB3 (11715151_x_at) / Fold change /veh PRB3 (11715151_x_at) / RFU TUBB4B (11761932_at) / Fold change /veh TUBB4B (11761932_at) / RFU CAPN14 (11732068_a_at) / Fold change /veh CAPN14 (11732068_a_at) / RFU TMCC2 (11721928_a_at) / Fold change /veh TMCC2 (11721928_a_at) / RFU IRGQ (11745062_a_at) / Fold change /veh IRGQ (11745062_a_at) / RFU FAM174B (11720279_a_at) / Fold change /veh FAM174B (11720279_a_at) / RFU TMPRSS4 (11748680_a_at) / Fold change /veh TMPRSS4 (11748680_a_at) / RFU FAM212B (11763350_a_at) / Fold change /veh FAM212B (11763350_a_at) / RFU PLEKHG5 (11743358_a_at) / Fold change /veh PLEKHG5 (11743358_a_at) / RFU ZSCAN30 (11745921_a_at) / Fold change /veh ZSCAN30 (11745921_a_at) / RFU CMKLR1 (11741424_a_at) / Fold change /veh CMKLR1 (11741424_a_at) / RFU LOC101060620 /// MAPK8IP1 (11723275_at) / Fold change /veh LOC101060620 /// MAPK8IP1 (11723275_at) / RFU SPTSSB (11747773_x_at) / Fold change /veh SPTSSB (11747773_x_at) / RFU PRSS12 (11739890_at) / Fold change /veh PRSS12 (11739890_at) / RFU BIN1 (11741810_x_at) / Fold change /veh BIN1 (11741810_x_at) / RFU WNT11 (11732464_a_at) / Fold change /veh WNT11 (11732464_a_at) / RFU C10orf10 (11716521_a_at) / Fold change /veh C10orf10 (11716521_a_at) / RFU C5orf56 (11738089_at) / Fold change /veh C5orf56 (11738089_at) / RFU CYB561 (11721691_x_at) / Fold change /veh CYB561 (11721691_x_at) / RFU ANKRD19P (11752326_a_at) / Fold change /veh ANKRD19P (11752326_a_at) / RFU OR2T12 /// OR2T33 /// OR2T8 (11738714_s_at) / Fold change /veh OR2T12 /// OR2T33 /// OR2T8 (11738714_s_at) / RFU VCAN (11748164_a_at) / Fold change /veh VCAN (11748164_a_at) / RFU JSRP1 (11732532_at) / Fold change /veh JSRP1 (11732532_at) / RFU KRTAP10-11 (11738290_x_at) / Fold change /veh KRTAP10-11 (11738290_x_at) / RFU MYO3A (11730013_a_at) / Fold change /veh MYO3A (11730013_a_at) / RFU EBF3 (11725865_a_at) / Fold change /veh EBF3 (11725865_a_at) / RFU CAMK2N1 (11719241_x_at) / Fold change /veh CAMK2N1 (11719241_x_at) / RFU C5orf56 (11738088_a_at) / Fold change /veh C5orf56 (11738088_a_at) / RFU OLFML3 (11715873_a_at) / Fold change /veh OLFML3 (11715873_a_at) / RFU LOC100653217 /// NTM (11731650_a_at) / Fold change /veh LOC100653217 /// NTM (11731650_a_at) / RFU MAPK11 (11762145_a_at) / Fold change /veh MAPK11 (11762145_a_at) / RFU FIZ1 (11724087_x_at) / Fold change /veh FIZ1 (11724087_x_at) / RFU OASL (11726364_x_at) / Fold change /veh OASL (11726364_x_at) / RFU SOX15 (11748057_x_at) / Fold change /veh SOX15 (11748057_x_at) / RFU CD79A (11719716_a_at) / Fold change /veh CD79A (11719716_a_at) / RFU HIST1H1D (11736915_at) / Fold change /veh HIST1H1D (11736915_at) / RFU CASKIN2 (11723855_a_at) / Fold change /veh CASKIN2 (11723855_a_at) / RFU LOC730098 (11760151_x_at) / Fold change /veh LOC730098 (11760151_x_at) / RFU OR4N2 (11742367_at) / Fold change /veh OR4N2 (11742367_at) / RFU PRRT2 (11749266_a_at) / Fold change /veh PRRT2 (11749266_a_at) / RFU SNX32 (11753110_a_at) / Fold change /veh SNX32 (11753110_a_at) / RFU CDHR5 (11726645_a_at) / Fold change /veh CDHR5 (11726645_a_at) / RFU RCAN1 (11760418_a_at) / Fold change /veh RCAN1 (11760418_a_at) / RFU FAM167A (11723789_a_at) / Fold change /veh FAM167A (11723789_a_at) / RFU FAM26E (11764081_at) / Fold change /veh FAM26E (11764081_at) / RFU ISYNA1 (11749810_s_at) / Fold change /veh ISYNA1 (11749810_s_at) / RFU ACY1 (11761880_at) / Fold change /veh ACY1 (11761880_at) / RFU 11764098_at / Fold change /veh 11764098_at / RFU SAMD14 (11745864_x_at) / Fold change /veh SAMD14 (11745864_x_at) / RFU NPB (11741838_a_at) / Fold change /veh NPB (11741838_a_at) / RFU TMPRSS6 (11731388_a_at) / Fold change /veh TMPRSS6 (11731388_a_at) / RFU KRTAP10-2 (11738614_at) / Fold change /veh KRTAP10-2 (11738614_at) / RFU ARHGAP8 /// PRR5-ARHGAP8 (11727945_x_at) / Fold change /veh ARHGAP8 /// PRR5-ARHGAP8 (11727945_x_at) / RFU KRTAP5-7 /// NADSYN1 (11734609_at) / Fold change /veh KRTAP5-7 /// NADSYN1 (11734609_at) / RFU RASL12 (11751679_a_at) / Fold change /veh RASL12 (11751679_a_at) / RFU CDKN2B (11736163_a_at) / Fold change /veh CDKN2B (11736163_a_at) / RFU PRF1 (11729649_at) / Fold change /veh PRF1 (11729649_at) / RFU, ZNF638 /// ZNF638-IT1 / Fold change vs veh, ZNF638 /// ZNF638-IT1 / RFU, PANK3 / Fold change vs veh, PANK3 / RFU, SH3YL1 / Fold change vs veh, SH3YL1 / RFU, ZEB2 / Fold change vs veh, ZEB2 / RFU, NRIP1 / Fold change vs veh, NRIP1 / RFU, PTTG1IP / Fold change vs veh, PTTG1IP / RFU, CAPN2 / Fold change vs veh, CAPN2 / RFU, MED14 / Fold change vs veh, MED14 / RFU, SNORA58 / Fold change vs veh, SNORA58 / RFU, C1orf63 / Fold change vs veh, C1orf63 / RFU, LRRFIP1 / Fold change vs veh, LRRFIP1 / RFU, NDUFAF7 / Fold change vs veh, NDUFAF7 / RFU, SLC12A2 / Fold change vs veh, SLC12A2 / RFU, IBTK / Fold change vs veh, IBTK / RFU, ESF1 / Fold change vs veh, ESF1 / Fold change vs veh, TMEM50B / RFU, TAOK1 / Fold change vs veh, TAOK1 / RFU, ACBD3 / Fold change vs veh, ACBD3 / RFU, TMA16 / Fold change vs veh, TMA16 / RFU, RWDD3 / Fold change vs veh, RWDD3 / RFU, BCAT1 / Fold change vs veh, BCAT1 / RFU, EDEM3 / Fold change vs veh, EDEM3 / RFU, TMEM33 / Fold change vs veh, TMEM33 / RFU, WDR75 / Fold change vs veh, WDR75 / RFU, AHCTF1 / Fold change vs veh, AHCTF1 / RFU, TFRC / Fold change vs veh, TFRC / RFU, ZDHHC17 / Fold change vs veh, ZDHHC17 / RFU, NOM1 / Fold change vs veh, NOM1 / RFU, ARL8B / Fold change vs veh, ARL8B / RFU, ZBTB11 / Fold change vs veh, ZBTB11 / RFU, TAMM41 / Fold change vs veh, TAMM41 / RFU, KIAA1704 /// LOC100996395 / Fold change vs veh, KIAA1704 /// LOC100996395 / RFU, ING1 / Fold change vs veh, ING1 / RFU, TRMT61B / Fold change vs veh, TRMT61B / RFU, FUBP3 / Fold change vs veh, FUBP3 / RFU, TP53 / Fold change vs veh, TP53 / RFU, TNKS2 / Fold change vs veh, TNKS2 / RFU, ZFP14 / Fold change vs veh, ZFP14 / RFU, ACTR2 / Fold change vs veh, ACTR2 / RFU, PPP3R1 / Fold change vs veh, PPP3R1 / RFU, PIK3R1 / Fold change vs veh, PIK3R1 / RFU, HNRNPA1 / Fold change vs veh, HNRNPA1 / RFU, RNF170 / Fold change vs veh, RNF170 / RFU, ZNF28 / Fold change vs veh, ZNF28 / RFU, RNGTT / Fold change vs veh, RNGTT / RFU, OGT / Fold change vs veh, OGT / RFU, BRD1 / Fold change vs veh, BRD1 / RFU, MARS / Fold change vs veh, MARS / RFU, ZNF655 / Fold change vs veh, ZNF655 / RFU, FAHD1 / Fold change vs veh, FAHD1 / RFU, BDP1 / Fold change vs veh, BDP1 / RFU, LRRCC1 / Fold change vs veh, LRRCC1 / RFU, ARID1A / Fold change vs veh, ARID1A / RFU, ZNF146 / Fold change vs veh, ZNF146 / RFU, ZNF330 / Fold change vs veh, ZNF330 / RFU, GPN3 / Fold change vs veh, GPN3 / RFU, C9orf123 / Fold change vs veh, C9orf123 / RFU, N4BP2L2 / Fold change vs veh, N4BP2L2 / RFU, ARFIP1 / Fold change vs veh, ARFIP1 / RFU, FAM179B / Fold change vs veh, FAM179B / RFU, BCL10 / Fold change vs veh, BCL10 / RFU, UHRF1BP1L / Fold change vs veh, UHRF1BP1L / RFU, BET1 / Fold change vs veh, BET1 / RFU, CNOT2 / Fold change vs veh, CNOT2 / RFU, ZNF268 / Fold change vs veh, ZNF268 / Fold change vs veh, ZNF507 / RFU, DGCR2 / Fold change vs veh, DGCR2 / RFU, WDSUB1 / Fold change vs veh, WDSUB1 / Fold change vs veh, HSP90B1 /// MIR3652 / RFU, ADSS / Fold change vs veh, ADSS / RFU, GK / Fold change vs veh, GK / RFU, ZNF148 / Fold change vs veh, ZNF148 / RFU, TAF9 / Fold change vs veh, TAF9 / RFU, SLC1A5 / Fold change vs veh, SLC1A5 / RFU, SLMO2 / Fold change vs veh, SLMO2 / RFU, ABCC4 / Fold change vs veh, ABCC4 / RFU, LOC101060439 /// RAP1B / Fold change vs veh, LOC101060439 /// RAP1B / RFU, RFX7 / Fold change vs veh, RFX7 / RFU, GTPBP10 / Fold change vs veh, GTPBP10 / RFU, CNEP1R1 / Fold change vs veh, CNEP1R1 / RFU, BIVM-ERCC5 /// ERCC5 / Fold change vs veh, BIVM-ERCC5 /// ERCC5 / RFU, ILF3 / Fold change vs veh, ILF3 / RFU 11762660_at / Fold change /veh 11762660_at / RFU VCAN (11757783_s_at) / Fold change /veh VCAN (11757783_s_at) / RFU DDX43 (11728927_at) / Fold change /veh DDX43 (11728927_at) / RFU KRT8 (11758188_x_at) / Fold change /veh KRT8 (11758188_x_at) / RFU NKD1 (11759106_at) / Fold change /veh NKD1 (11759106_at) / RFU SRD5A1 (11742802_a_at) / Fold change /veh SRD5A1 (11742802_a_at) / RFU TPSAB1 /// TPSB2 (11721975_s_at) / Fold change /veh TPSAB1 /// TPSB2 (11721975_s_at) / RFU GSTM3 (11746129_a_at) / Fold change /veh GSTM3 (11746129_a_at) / RFU IL23R (11737362_x_at) / Fold change /veh IL23R (11737362_x_at) / RFU TMEM51 (11727254_a_at) / Fold change /veh TMEM51 (11727254_a_at) / RFU PIWIL2 (11732686_x_at) / Fold change /veh PIWIL2 (11732686_x_at) / RFU ORM1 (11744905_x_at) / Fold change /veh ORM1 (11744905_x_at) / RFU CCDC152 (11743942_at) / Fold change /veh CCDC152 (11743942_at) / RFU ECM1 (11717891_a_at) / Fold change /veh ECM1 (11717891_a_at) / RFU IL23R (11748794_a_at) / Fold change /veh IL23R (11748794_a_at) / RFU TNFAIP8L3 (11732012_x_at) / Fold change /veh TNFAIP8L3 (11732012_x_at) / RFU MBOAT4 (11741988_at) / Fold change /veh MBOAT4 (11741988_at) / RFU 11764193_at / Fold change /veh 11764193_at / RFU TMEM53 (11763286_at) / Fold change /veh TMEM53 (11763286_at) / RFU MAGEB2 (11727129_at) / Fold change /veh MAGEB2 (11727129_at) / RFU TMEM200A (11744735_a_at) / Fold change /veh TMEM200A (11744735_a_at) / RFU CCDC152 (11751479_a_at) / Fold change /veh CCDC152 (11751479_a_at) / RFU FAM211A (11726209_a_at) / Fold change /veh FAM211A (11726209_a_at) / RFU RGS16 (11746705_a_at) / Fold change /veh RGS16 (11746705_a_at) / RFU VCAN (11755009_s_at) / Fold change /veh VCAN (11755009_s_at) / RFU RHOB (11743442_s_at) / Fold change /veh RHOB (11743442_s_at) / RFU RGS16 (11720943_a_at) / Fold change /veh RGS16 (11720943_a_at) / RFU RGS16 (11720944_at) / Fold change /veh RGS16 (11720944_at) / RFU, VPS4B / Fold change vs veh, VPS4B / RFU, CREB1 / Fold change vs veh, CREB1 / RFU, DNAJC13 / Fold change vs veh, DNAJC13 / RFU, GNAQ / Fold change vs veh, GNAQ / RFU, CDK5R1 / Fold change vs veh, CDK5R1 / RFU, ZRANB3 / Fold change vs veh, ZRANB3 / RFU, CUL4A / Fold change vs veh, CUL4A / RFU, CCNY / Fold change vs veh, CCNY / RFU, UFL1 / Fold change vs veh, UFL1 / RFU, COG3 / Fold change vs veh, COG3 / RFU, DIAPH2 / Fold change vs veh, DIAPH2 / RFU, SKA2 / Fold change vs veh, SKA2 / RFU, AFF3 / Fold change vs veh, AFF3 / RFU, LMF1 / Fold change vs veh, LMF1 / RFU, IPO11 / Fold change vs veh, IPO11 / RFU, DFFB / Fold change vs veh, DFFB / RFU, FOXP1 / Fold change vs veh, FOXP1 / RFU, CARD8 / Fold change vs veh, CARD8 / RFU, STRN3 / Fold change vs veh, STRN3 / RFU, ADK / Fold change vs veh, ADK / RFU, RASSF2 / Fold change vs veh, RASSF2 / RFU, WIPF1 / Fold change vs veh, WIPF1 / RFU, LARP1B / Fold change vs veh, LARP1B / RFU, RASA1 / Fold change vs veh, RASA1 / RFU, RB1 / Fold change vs veh, RB1 / RFU, PPFIA1 / Fold change vs veh, PPFIA1 / RFU, MAT2A / Fold change vs veh, MAT2A / RFU, CCT5 / Fold change vs veh, CCT5 / RFU, WDR92 / Fold change vs veh, WDR92 / RFU, CUX1 / Fold change vs veh, CUX1 / RFU, TTC7A / Fold change vs veh, TTC7A / RFU, TMEM135 / Fold change vs veh, TMEM135 / RFU, DEPTOR / Fold change vs veh, DEPTOR / RFU, CPM / Fold change vs veh, CPM / RFU, DNAJB6 / Fold change vs veh, DNAJB6 / RFU, CACNA2D3 / Fold change vs veh, CACNA2D3 / RFU, DTX4 / Fold change vs veh, DTX4 / RFU, TFCP2 / Fold change vs veh, TFCP2 / RFU, GMCL1 /// GMCL1P1 / Fold change vs veh, GMCL1 /// GMCL1P1 / RFU, AEBP2 / Fold change vs veh, AEBP2 / RFU, SNHG1 /// SNORD22 /// SNORD25 /// SNORD26 /// SNORD27 /// SNORD28 /// SNORD29 /// SNORD31 / Fold change vs veh, SNHG1 /// SNORD22 /// SNORD25 /// SNORD26 /// SNORD27 /// SNORD28 /// SNORD29 /// SNORD31 / Fold change (Aza/veh), C12orf56 (ProbeSet 11735607_a_at) / Fold change (ACY-1035/veh), C12orf56 (ProbeSet 11735607_a_at) / Fold change (Aza/veh), FGFR1OP (ProbeSet 11751329_s_at) / Fold change (ACY-1035/veh), FGFR1OP (ProbeSet 11751329_s_at) / Fold change (Aza/veh), VPS36 (ProbeSet 11739960_a_at) / Fold change (ACY-1035/veh), VPS36 (ProbeSet 11739960_a_at) / RFU SYPL1 (11715823_x_at) / Fold change /veh SYPL1 (11715823_x_at) / RFU IGFBP7 (11715501_s_at) / Fold change /veh IGFBP7 (11715501_s_at) / RFU REEP3 (11722064_at) / Fold change /veh REEP3 (11722064_at) / RFU IGLL1 (11728026_x_at) / Fold change /veh IGLL1 (11728026_x_at): dose or concentration left out as unconfirmed
Settings: MV-4-11 cells, 48 hours

## Nc1ccc(-c2cccs2)cc1NC(=O)c1ccc2c(c1)cc(C1CC1)n2CCN1CCOCC1 [ACY-1035]
  Fold change /veh SRD5A1 (11742802_a_at): 1.16

From publication PMC5218480 (PLoS ONE, 2017)
